{"source": "paper PMC9377232", "about": "(Journal of Enzyme Inhibition and Medicinal Chemistry, 2022)", "key": {"[1]": {"system": "stomach", "assay": "Acute ulcerogenic side effect", "assay_type": "in vivo", "settings": "mice; for Abou Zeit Har Score (ulcer index): intraperitoneal, indomethacin 5 mg/kg, celecoxib 20 mg/kg, means ± SD; for Gastric mucosa finding (ulcers) on examination: stomach examined after sacrifice"}, "[2]": {"system": "COX-1 mRNA", "assay": "Real-time PCR of inflamed paw tissue, COX-1 gene expression", "assay_type": "in vivo, Mouse", "settings": "paw tissue after formalin test; 2^-ΔΔCt method; means ± SD"}, "[3]": {"system": "LOX mRNA", "assay": "Real-time PCR of inflamed paw tissue, LOX gene expression", "assay_type": "in vivo, Mouse", "settings": "paw tissue after formalin test, 2^-ΔΔCt method, means ± SD"}, "[4]": {"system": "COX-2 mRNA", "assay": "Real-time PCR of inflamed paw tissue, COX-2 gene expression", "assay_type": "in vivo, Mouse", "settings": "paw tissue after formalin test; 2^-ΔΔCt method; means ± SD"}}, "note": "Marks after values point to notes of the source that are not given here.", "data": [{"smiles": "Cc1ccc(-c2cc(C(F)(F)F)nn2-c2ccc(S(N)(=O)=O)cc2)cc1", "note": "[Celecoxib]", "values": [{"measurement": "Abou Zeit Har Score (ulcer index)", "setting": "[1]", "value": "0.6 ± 0.58"}, {"measurement": "Gastric mucosa finding (ulcers) on examination", "setting": "[1]", "value": "preserved the integrity of the mucosa"}]}, {"smiles": "COc1ccc2c(c1)c(CC(=O)O)c(C)n2C(=O)c1ccc(Cl)cc1", "note": "[Indomethacin]", "values": [{"measurement": "Abou Zeit Har Score (ulcer index)", "setting": "[1]", "value": "11.2 ± 1.64"}, {"measurement": "Gastric mucosa finding (ulcers) on examination", "setting": "[1]", "value": "large ulcers"}, {"measurement": "COX-1 mRNA relative expression (real-time PCR)", "setting": "[2]", "value": "0.82 ± 0.02"}, {"measurement": "LOX mRNA relative expression (real-time PCR)", "setting": "[3]", "value": "1.32 ± 0.01"}, {"measurement": "LOX mRNA relative expression (real-time PCR)", "setting": "[3]; listed as indomethacin", "value": "not affected"}, {"measurement": "COX-2 mRNA relative expression (real-time PCR)", "setting": "[4]", "value": "0.17 ± 0.01^a"}]}]}
